Measured values as given in patent US12384756B2, “Piperidinedione derivatives” (INNOCURE THERAPEUTICS, INC., priority 2021, dated 2025).
pIC50: −log10 of the molar value. Like-named read-outs stand apart in the source and are kept apart here.

How the values were obtained:
[1] = system: Human breast cancer cell line [MDA-MB-231]; experiment: Anti-proliferative activity (WST-8) of BRD4 targeted PROTAC in MDA-MB-231; format: cell-based; conditions: Homo sapiens, MDA-MB-231, 72 hours
Protocol: (§1) Human breast cancer cell line [MDA-MB-231] was cultured in RPMI medium with 10% petal bovine serum, penicillin [100 U/ml] and streptomycin [[…]]. The synthesized compound was prepared as a stock solution of 10 mM or 50 mM dissolved in DMSO [dimethyl sulfoxide], and it was sequentially diluted to treat the cell line.
In order to observe inhibition of cell growth, cells were aliquoted into concentrations of 5,000 cells/well at 96 well plates, and then were treated with samples prepared at various concentrations for 72 hours. The cell survival was calculated by steps of adding in each well […] of water soluble tetrazolium salt (WST-8) which produces formazon in response to dehydrogenase present in the electron transport chain in mitochondria, incubating for 2 hours, measuring the absorbance at 450 nm, and calculating by GraphicPad Prism 8.0 software.

BRD4 = BRD4 (Homo sapiens, UniProt O60885); experiment: BRD4 protein degradation by western blot in MDA-MB-231 cells; format: cell-based; design: BRD4 expressed in cells; endogenous in cells; host or cells: MDA-MB-231; conditions: MDA-MB-231, 24 hours; for DC50: 50% inhibition of protein expression, read-out: DC50 of BRD4-targeted PROTAC
Protocol: as §1
To evaluate the PROTAC's degradation ability to BRD4 expressed in cells, the cells were aliquoted into a 6 well plate at a concentration of 5×10^5 cells/ml, and then the sample was treated for 24 hours. In order to conduct western blotting assay to confirm protein expression, the cell treated with the compound was treated for 30 minutes with 70 μL of RIPA buffer wherein protease inhibitor is added. Then, cell lysate was collected on ice using a scraper and centrifuged at 4° C. 15,000 rpm for 30 minutes to obtain a supernatant containing protein. Then, SDS-PAGE is conducted for 10 μg of protein per each sample, and the protein is transferred to a membrane. The protein is reacted with antibodies of anti-BRD4, anti-tubulin and anti-GAPDH at 4° C. for 16 hours, and then, reacted with secondary antibodies at room temperature for 1 hour. The protein expression is confirmed using SUPERSIGNAL™ WEST PICO PLUS chemiluminescence substrate and image analyzer. The protein expression was normalized based on the expression value of β-tublin or GAPDH. The amount of protein expression in each sample was measured in % based on the sample treated with 0.1% DMSO vehicle which was set to 100%. The amount of protein expression was quantified using the IMAGE J PROGRAM. The change in the amount of protein expression due to the treatment of compound (DC50: the concentration of compounds where the 50% inhibition of protein expression is achieved) was calculated using […] PRISM 8.0 software.

[2] = WST-8, read-out: IC50 of BRD4-targeted PROTAC (cell proliferation)
[3] = read-out: concentration at which cancer cell proliferation is effectively inhibited

pIC50 [1, 2]	pIC50 [1, 3]	BRD4 degradation (in words) (BRD4)	DC50 (BRD4) [nM]	Compound
7.01	> 6.60	effectively degraded	3.7	Cc1sc2c(c1C)C(c1ccc(Cl)cc1)=N[C@@H](CC(=O)Nc1ccc(OCCOCCOCCOCCNc3ccc4cnn(C5CCC(=O)NC5=O)c(=O)c4c3)cc1)c1nnc(C)n1-2 (stereo partly drawn) [Ex. 29, 2-((S)-4-(4-chlorophenyl)-2,3,9-trimethyl-6H-thieno[3,2-f][1,2,4]triazolo[4,3-a][1,4]diazepin-6-yl)-N-(4-(2-(2-(2-(2-((3-(2,6-dioxopiperidin-3-yl)-4-oxo-3,4-dihydrophthalazin-6-yl)amino)ethoxy)ethoxy)ethoxy)ethoxy)phenyl)acetamide]
< 6.00				Cc1sc2c(c1C)C(c1ccc(Cl)cc1)=N[C@@H](CC(=O)Nc1cccc(OCCOCCOCCNc3cccc4c(=O)n(C5CCC(=O)NC5=O)ncc34)c1)c1nnc(C)n1-2 (stereo partly drawn) [Ex. 30, 2-[(9S)-7-(4-chlorophenyl)-4,5,13-trimethyl-3-thia-1,8,11,12-tetraazatricyclo[8.3.0.0^2,6]trideca-2(6),4,7,10,12-pentaen-9-yl]-N-(3-{2-[2-(2-{[2-(2,6-dioxopiperidin-3-yl)-1-oxo-1,2-dihydrophthalazin-5-yl]amino}ethoxy)ethoxy]ethoxy}phenyl)acetamide]
< 6.00				Cc1sc2c(c1C)C(c1ccc(Cl)cc1)=N[C@@H](CC(=O)NCc1cn(CCOCCOCCNc3cccc4cnn(C5CCC(=O)NC5=O)c(=O)c34)nn1)c1nnc(C)n1-2 (stereo partly drawn) [Ex. 31, 2-((S)-4-(4-chlorophenyl)-2,3,9-trimethyl-6H-thieno[3,2-f][1,2,4]triazolo[4,3-a][1,4]diazepin-6-yl)-N-((1-(2-(2-(2-((3-(2,6-dioxopiperidin-3-yl)-4-oxo-3,4-dihydrophthalazin-5-yl)amino)ethoxy)ethoxy)ethyl)-1H-1,2,3-triazol-4-yl)methyl)acetamide]
< 6.00				Cc1sc2c(c1C)C(c1ccc(Cl)cc1)=N[C@@H](CC(=O)NCc1cn(CCOCCOCCOCCNc3cccc4cnn(C5CCC(=O)NC5=O)c(=O)c34)nn1)c1nnc(C)n1-2 (stereo partly drawn) [Ex. 32, 2-((S)-4-(4-chlorophenyl)-2,3,9-trimethyl-6H-thieno[3,2-f][1,2,4]triazolo[4,3-a][1,4]diazepin-6-yl)-N-((1-(2-(2-(2-(2-((3-(2,6-dioxopiperidin-3-yl)-4-oxo-3,4-dihydrophthalazin-5-yl)amino)ethoxy)ethoxy)ethoxy)ethyl)-1H-1,2,3-triazol-4-yl)methyl)acetamide]
< 6.00			171	Cc1sc2c(c1C)C(c1ccc(Cl)cc1)=N[C@@H](CC(=O)NCc1cn(CCOCCOCCNc3cccc4c(=O)n(C5CCC(=O)NC5=O)ncc34)nn1)c1nnc(C)n1-2 (stereo partly drawn) [Ex. 33, 2-[(9S)-7-(4-chlorophenyl)-4,5,13-trimethyl-3-thia-1,8,11,12-tetraazatricyclo[8.3.0.0^2,6]trideca-2(6),4,7,10,12-pentaen-9-yl]-N-[(1-{2-[2-(2-{[2-(2,6-dioxopiperidin-3-yl)-1-oxo-1,2-dihydrophthalazin-5-yl]amino}ethoxy)ethoxy]ethyl}-1H-1,2,3-triazol-4-yl)methyl]acetamide]
< 6.00			38.6	Cc1sc2c(c1C)C(c1ccc(Cl)cc1)=N[C@@H](CC(=O)NCc1cn(CCOCCOCCOCCNc3cccc4c(=O)n(C5CCC(=O)NC5=O)ncc34)nn1)c1nnc(C)n1-2 (stereo partly drawn) [Example 34, 2-[(9S)-7-(4-chlorophenyl)-4,5,13-trimethyl-3-thia-1,8,11,12-tetraazatricyclo[8.3.0.0^2,6]trideca-2(6),4,7,10,12-pentaen-9-yl]-N-{[1-(2-{2-[2-(2-{[2-(2,6-dioxopiperidin-3-yl)-1-oxo-1,2-dihydrophthalazin-5-yl]amino}ethoxy)ethoxy]ethoxy}ethyl)-1H-1,2,3-triazol-4-yl]methyl}acetamide]
< 6.00			663	Cc1sc2c(c1C)C(c1ccc(Cl)cc1)=N[C@@H](CC(=O)NCCOCCOCCOCCn1cc(CNc3cccc4cnn(C5CCC(=O)NC5=O)c(=O)c34)nn1)c1nnc(C)n1-2 (stereo partly drawn) [Example 36, 2-[(9S)-7-(4-chlorophenyl)-4,5,13-trimethyl-3-thia-1,8,11,12-tetraazatricyclo[8.3.0.0^2,6]trideca-2(6),4,7,10,12-pentaen-9-yl]-N-{2-[2-(2-{2-[4-({[3-(2,6-dioxopiperidin-3-yl)-4-oxo-3,4-dihydrophthalazin-5-yl]amino}methyl)-1H-1,2,3-triazol-1-yl]ethoxy}ethoxy)ethoxy]ethyl}acetamide]
> 9.00	> 6.60	effectively degraded	0.173	Cc1sc2c(c1C)C(c1ccc(Cl)cc1)=N[C@@H](CC(=O)NCCCCCNc1ccc3c(=O)n(C4CCC(=O)NC4=O)ncc3c1)c1nnc(C)n1-2 (stereo partly drawn) [Example 37, 2-((S)-4-(4-chlorophenyl)-2,3,9-trimethyl-6H-thieno[3,2-f][1,2,4]triazolo[4,3-a][1,4]diazepin-6-yl)-N-(5-((2-(2,6-dioxopiperidin-3-yl)-1-oxo-1,2-dihydrophthalazin-6-yl)amino)pentyl)acetamide]
6.25			66.5	Cc1sc2c(c1C)C(c1ccc(Cl)cc1)=N[C@@H](CC(=O)NCCCN1CCN(CCCNc3cccc4cnn(C5CCC(=O)NC5=O)c(=O)c34)CC1)c1nnc(C)n1-2 (stereo partly drawn) [Example 38, 2-((S)-4-(4-chlorophenyl)-2,3,9-trimethyl-6H-thieno[3,2-f][1,2,4]triazolo[4,3-a][1,4]diazepin-6-yl)-N-(3-(4-(3-((3-(2,6-dioxopiperidin-3-yl)-4-oxo-3,4-dihydrophthalazin-5-yl)amino)propyl)piperazin-1-yl)propyl)acetamide]
6.21				Cc1sc2c(c1C)C(c1ccc(Cl)cc1)=N[C@@H](CC(=O)NCC1CCN(c3cccc4cnn(C5CCC(=O)NC5=O)c(=O)c34)C1)c1nnc(C)n1-2 (stereo partly drawn) [Example 50, 2-((S)-4-(4-chlorophenyl)-2,3,9-trimethyl-6H-thieno[3,2-f][1,2,4]triazolo[4,3-a][1,4]diazepin-6-yl)-N-((1-(3-(2,6-dioxopiperidin-3-yl)-4-oxo-3,4-dihydrophthalazin-5-yl)pyrrolidin-3-yl)methyl)acetamide]
7.00				Cc1sc2c(c1C)C(c1ccc(Cl)cc1)=N[C@@H](CC(=O)NCCCCCNc1cccc3c(=O)n(C4CCC(=O)NC4=O)ncc13)c1nnc(C)n1-2 (stereo partly drawn) [Example 51, 2-[(9S)-7-(4-chlorophenyl)-4,5,13-trimethyl-3-thia-1,8,11,12-tetraazatricyclo[8.3.0.0^2,6]trideca-2(6),4,7,10,12-pentaen-9-yl]-N-(5-{[2-(2,6-dioxopiperidin-3-yl)-1-oxo-1,2-dihydrophthalazin-5-yl]amino}pentyl)acetamide]
6.90				Cc1sc2c(c1C)C(c1ccc(Cl)cc1)=N[C@@H](CC(=O)NCCCCCNc1cccc3cnn(C4CCC(=O)NC4=O)c(=O)c13)c1nnc(C)n1-2 (stereo partly drawn) [Example 52, 2-[(9S)-7-(4-chlorophenyl)-4,5,13-trimethyl-3-thia-1,8,11,12-tetraazatricyclo[8.3.0.0^2,6]trideca-2(6),4,7,10,12-pentaen-9-yl]-N-(5-{[3-(2,6-dioxopiperidin-3-yl)-4-oxo-3,4-dihydrophthalazin-5-yl]amino}pentyl)acetamide]
< 6.00				Cc1sc2c(c1C)C(c1ccc(Cl)cc1)=N[C@@H](CC(=O)NCC1CCN(c3cccc4cnn(C5CCC(=O)NC5=O)c(=O)c34)CC1)c1nnc(C)n1-2 (stereo partly drawn) [Example 53, 2-((S)-4-(4-chlorophenyl)-2,3,9-trimethyl-6H-thieno[3,2-f][1,2,4]triazolo[4,3-a][1,4]diazepin-6-yl)-N-((1-(3-(2,6-dioxopiperidin-3-yl)-4-oxo-3,4-dihydrophthalazin-5-yl)piperidine-4-yl)methyl)acetamide]

Compound	pIC50 [1, 2]	pIC50 [1, 3]	BRD4 degradation (in words) (BRD4)	DC50 (BRD4) [nM]
Cc1sc2c(c1C)C(c1ccc(Cl)cc1)=N[C@@H](CC(=O)NCCOc1cccc3c(=O)n(C4CCC(=O)NC4=O)ncc13)c1nnc(C)n1-2 (stereo partly drawn) [Example 46, 2-((S)-4-(4-chlorophenyl)-2,3,9-trimethyl-6H-thieno[3,2-f][1,2,4]triazolo[4,3-a][1,4]diazepin-6-yl)-N-(2-((2-(2,6-dioxopiperidin-3-yl)-1-oxo-1,2-dihydrophthalazin-5-yl)oxy)ethyl)acetamide]	< 6.00			
